{"source": "patent US12201628B2", "about": "“Neuronal modulation” (priority 2013, dated 2025)", "key": {"[1]": {"conditions": "IP injected; cited from earlier work"}, "[2]": {"tested_on": "immune cell clusters (CD45+ cells)", "experiment": "CyTOF mass cytometry of blood and spleen with Citrus analysis", "assay_type": "in vivo, mice", "conditions": "6-OHDA 150 mg/kg twice IP (SNS ablated); splenocytes 24 h after VTA activation", "method": "Two weeks after completion of the behavioral testing, mice were injected intraperitoneally with CNO and anesthetized 24 hours thereafter. Spleens and blood samples were collected. Spleens were dissociated into single-cell suspensions in 2% fetal bovine serum (Biological Industries, IL) and mesh filtered to remove clumps and debris. Blood samples were collected into heparin-coated sterile test tubes. Both the blood and the spleen cell suspensions were lysed with red blood cell lysis buffer (BD Biosciences, NJ, US). Cells ([…]) from each tissue were stained, for 1 hour at room temperature, with a mixture of metal tagged antibodies recognizing CD45, CCR3, CD80, GR1, CD86, CD19, CD4, CD45R, CD152, CD138, CD8, NK1.1, CD27, CD206, CD25, CD14, CD11c, CD49b, CD34, CD69, CD123, TCRβ, CCR7, CD28, CD115, CD133, TLR4, CD117, CD79b, CD62L, CD44, CD45RA, CD1d, IAIE, CD5, and CD11b. All antibodies were conjugated using the MAXPAR reagent (Fluidigm Inc.), with Rhodium and Iridium intercalators used to identify live/dead cells. Cells were washed twice with PBS, fixed in 1.6% formaldehyde (Sigma-Aldrich, St. Louis, MO) for 1 hour, washed again in ultrapure H2O and subjected to CyTOF mass cytometry analysis on a CyTOF I machine, with cell events acquired at approximately 500 events per second. In addition, each sample was spiked with internal metal isotope bead standards, which then was used for sample normalization by CyTOF software (Fluidigm). Acquired data was then uploaded to a Cytobank web server (Cytobank Inc.) for data processing and gating out of dead cells and normalization beads. Data was transformed using an arc sin h (X/5) transformation.\nDifferences in cell subset abundance and functional marker expression between VTA activated and control mice, were identified using the Citrus algorithm, a clustering and differential detection algorithm especially suited for high dimensional cytometry data (2). Twenty FCS files of normalized, live cell/no beads samples (Five VTA activated mice spleens, five VTA activated mice blood samples, 5 control mice spleen and five control mice blood) were each randomly sampled for 40,000 single cell events each. Briefly, Citrus performs three steps to identify cell subsets and differences between groups: First, collected single cell events are pooled together and iteratively hierarchically clustered using a subset of the measured channels for clustering (See Table 1 for a list of 23 clustering markers), yielding overlapping clusters with the ultimate cluster being one encompassing all sampled events. Second, the pooled dataset is split back into its constituting samples and the relative abundance of cells in each cluster is computed, as well as the median values of each functional marker (see Table 1 for a list of functional markers). Only cell clusters whose total abundance in one or more of the measured samples was greater than 1% of the total measured sample was retained for downstream analysis, yielding a total of 151 clusters. Third, the Citrus implementation of the SAM algorithm was applied, to identify, separately, differences in cell subset abundances and medians between VTA activated and control mouse samples at a predetermined FDR of 5%. Beyond this, an additional criteria for calling differences was employed, by performing a Mann-Whitney non-parametric test of significance on each cluster found to be different between VTA activated and control and requiring that it meet a p-value <0.05 criteria. Manual inspection of Citrus output was used to identify the closest known gross-cell type, matching the 23 combination clustering marker panel. A similar procedure analysis procedure was performed for 6-OHDA samples versus control. […]"}}, "data": [{"smiles": "NCCc1cc(O)c(O)cc1O", "note": "[6 OHDA, 6-hydroxydopamine]", "values": [{"measurement": "crossing of the blood brain barrier", "setting": "[1]", "value": "does not cross the blood brain barrier"}, {"measurement": "differences in immune system (CD45+ cells) between VTA-activated and control mice", "setting": "[2]", "value": "no significant differences were detected"}]}]}
